In PMC5716981, “Inhibition of A2A Adenosine Receptor Signaling in Cancer Cells Proliferation by the Novel Antagonist TP455” (Frontiers in Pharmacology, 2017):
Structures can show the parent of a compound that is named as a salt.

How the values were obtained:
A2AARs [1] = biological target: A2AARs (Rattus norvegicus, UniProt P30543); assay: biochemical
Procedure: (§4) For membrane preparation the culture medium was removed. […] The cell suspension was homogenized with Polytron and the homogenate was spun for 10 min at 1000 g. The supernatant was then centrifuged for 30 min at 100,000g. The membrane pellet was resuspended in 50 mM Tris HCl buffer pH 7.4, 10 mM MgCl2. […] Then the suspension was frozen at -80°C.
(§5) At the end of the incubation, bound and free radioactivity were separated by filtering, in a Brandel cell harvester, the assay mixture through Whatman GF/B glass-fiber filters. The filter bound radioactivity was counted in a liquid Scintillation Counter Tri Carb Packard 2500 TR (Perkin-Elmer Life and Analytical Sciences, Boston, MA, United States).
(§6) LIGAND was also used to determine inhibitory binding constant (Ki) values from the competition binding experiments. All values in the figures and text are expressed as mean ± standard error (SE) of three independent experiments.

A549 cells = assay: DELFIA cell proliferation (BrdU) in A549 cells; type: cell-based, human; settings: for effect on cell proliferation: 100 nM; for antagonism of CGS21680-induced cell proliferation / inhibition of CGS21680-induced cell proliferation by signalling inhibitor: 100 nM CGS21680, 24 h; for inhibition of CGS21680-induced cell proliferation by signalling inhibitor: 10 μM inhibitor 30 min pretreatment
Procedure: (§1) Tumoral cell lines A375 (human skin malignant melanoma), A549 (adenocarcinomic human alveolar basal epithelial cells) and rat cell line MRMT-1 (rat breast carcinoma cells) were purchased from ATCC and were grown adherently at 37°C in 5% CO2/95% air. A375 and A549 were maintained in DMEM high glucose medium containing 10% fetal calf serum, penicillin (100 U/mL) and streptomycin ([…]) and MRMT-1 were grown in RPMI 1640 medium containing 10% fetal calf serum, penicillin (100 U/mL), streptomycin ([…]), and L-glutamine (2 mM). Adenosine receptor agonists and antagonists and inhibitors of kinases, were made up in dimethyl sulfoxide solution (DMSO) and then diluted in cell culture medium (0.1 max 0.2% of DMSO). An equal amount of DMSO was used in control cells (CTR).
(§2) The DELFIA assay was performed to determine cell proliferation according to the manufacturer’s protocol from PerkinElmer (Milan, Italy). The assay is a time-resolved fluoroimmunoassay based on the incorporation of BrdU into newly synthesized DNA strands of proliferating cells cultured in microliter plates. Incorporated BrdU is detected using a europium labeled monoclonal antibody and the fluorescence measured is proportional to the DNA synthesis in the cell population of each well. A375, A549, and MRMT-1 cells were cultured over night at 1000 cells/well in a 96-well plate (at a final volume of 100 μl per well), agonists and antagonists were added and the cells were incubated for 30′ before addition of the BrdU-Labeling solution 10 μl/well. The cells were then cultured for 24, 48, or 72 h. At the end of the incubation period, cells were fixed (fix solution 100 μl/well), added with 100 μl/well of Anti-BrdU-Eu (0.5 μg/ml) and incubated for 120 min at room temperature. After four washes, 200 μl of DELFIA Inducer were added at room temperature for 15 min and the Eu-fluorescence was detected through an Ensight Perkin Elmer-multimode plate reader (Perkin Elmer, Milan, Italy). Two kinds of controls were performed: the blank where no cells were added to the well but only culture medium and the background where no BrdU was added to the wells.

MRMT-1 cells = assay: DELFIA cell proliferation (BrdU) in MRMT-1 cells; type: cell-based, rat; settings: for effect on cell proliferation when tested alone: 48 h; for antagonism of CGS21680-induced cell proliferation / inhibition of CGS21680-induced cell proliferation by signalling inhibitor: 100 nM CGS21680, 48 h; for inhibition of CGS21680-induced cell proliferation by signalling inhibitor: 10 μM inhibitor 30 min pretreatment
Procedure: as §1, §2

A375 cells = assay: DELFIA cell proliferation (BrdU) in A375 cells; type: cell-based, human; settings: for effect on cell proliferation when tested alone: 48 h; for antagonism of CGS21680-induced cell proliferation / inhibition of CGS21680-induced cell proliferation by signalling inhibitor: 100 nM CGS21680, 48 h; for inhibition of CGS21680-induced cell proliferation by signalling inhibitor: 10 μM inhibitor 30 min pretreatment
Procedure: as §1, §2

pERK1/2 = assay: AlphaScreen SureFire pERK1/2 assay in MRMT-1, A375 and A549 cells; type: cell-based, human and rat; settings: for antagonism of CGS21680-induced ERK1/2 phosphorylation: 100 nM CGS21680 5 min; for inhibition of CGS21680-mediated ERK1/2 phosphorylation: 10 μM inhibitor, 100 nM CGS 21680, MRMT-1, A375 and A549 cells
Procedure: (§3) AlphaScreen SureFire phospho(p)ERK1/2(Thr202/Tyr204), pJNK1/3(pThr183/Tyr185), and p-AKT1/2/3 (pThr308) assay kits (Perkin Elmer, Milan, Italy) were utilized. Upon kinase phosphorylation and excitation at 680 nm, fluorescent signals at 615 nm are emitted. Cells were seeded in 100 μl culture medium into 96-well plates (30,000/well), and incubated at 37°C for 24 h. Cells were pretreated with various inhibitors and TP455 for 30 min. Then, receptors were maximally stimulated using 100 nM CGS 21680 and incubated for 5 min (ERK1/2, JNK1/2-MAPK) or 30 min (AKT) at 37°C. After agonist removal, lysis buffer was added, then donor and acceptor beads linked to specific anti-p-kinase- and anti-kinase-antibodies were dispensed, according to manufacturer instructions. Finally, fluorescent signals were detected through an Ensight Perkin Elmer-multimode plate reader (Perkin Elmer, Milan, Italy). Data were normalized to fold activation above basal p-kinase levels (=100). For inhibitor graphs, raw data were transformed into percentages relative to controls (basal level = 100%) in order to merge data from several experiments.

pJNK1/2 = assay: AlphaScreen SureFire pJNK1/2 assay in MRMT-1, A375 and A549 cells; type: cell-based, human and rat; settings: for antagonism of CGS21680-induced JNK1/2 phosphorylation: 100 nM CGS21680 5 min; for inhibition of CGS21680-mediated JNK1/2 phosphorylation: 10 μM inhibitor, 100 nM CGS 21680, MRMT-1, A375 and A549 cells
Procedure: as §3

pAKT = assay: AlphaScreen SureFire pAKT assay in MRMT-1, A375 and A549 cells; type: cell-based, human and rat; settings: for antagonism of CGS21680-induced AKT phosphorylation: 100 nM CGS21680 10 min; for inhibition of CGS21680-mediated AKT phosphorylation: 10 μM inhibitor, 100 nM CGS 21680, MRMT-1, A375 and A549 cells
Procedure: as §3, with “Then, receptors were maximally stimulated using 100 nM CGS 21680 and incubated for 5 min (ERK1/2, JNK1/2-MAPK) or 30 min (AKT) at 37°C.” left out

A2AARs [2] = biological target: T1, A2AARs (Homo sapiens, UniProt P29274); assay: [3H]ZM241385 competition binding in A375 melanoma membranes
Procedure: as §4, §5, §6

A2AARs [3] = biological target: T1, A2AARs; assay: [3H]ZM241385 competition binding in A549 lung carcinoma membranes
Procedure: as §4, §5, §6

[4] = 100 nM, 0-60 min, MRMT-1, A375 and A549 cells
[5] = 10 nM antagonist 30 min pretreatment, MRMT-1, A375 and A549 cells
[6] = 100 nM antagonist 30 min pretreatment
[7] = 100 nM antagonist 30 min pretreatment, MRMT-1, A375 and A549 cells

A2AARs (Rattus norvegicus, UniProt P30543), sequence (P30543 whole entry): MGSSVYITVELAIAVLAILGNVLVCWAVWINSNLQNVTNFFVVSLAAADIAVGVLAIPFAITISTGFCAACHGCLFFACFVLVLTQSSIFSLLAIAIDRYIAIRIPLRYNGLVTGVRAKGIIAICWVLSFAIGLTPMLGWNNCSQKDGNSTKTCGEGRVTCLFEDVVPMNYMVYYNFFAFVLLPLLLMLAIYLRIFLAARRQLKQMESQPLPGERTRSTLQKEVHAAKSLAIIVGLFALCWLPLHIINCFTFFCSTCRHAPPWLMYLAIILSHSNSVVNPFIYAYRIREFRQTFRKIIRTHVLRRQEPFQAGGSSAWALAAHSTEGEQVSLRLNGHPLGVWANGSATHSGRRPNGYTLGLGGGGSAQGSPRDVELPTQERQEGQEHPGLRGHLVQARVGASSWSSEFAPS
T1 sequence (P29274 whole entry): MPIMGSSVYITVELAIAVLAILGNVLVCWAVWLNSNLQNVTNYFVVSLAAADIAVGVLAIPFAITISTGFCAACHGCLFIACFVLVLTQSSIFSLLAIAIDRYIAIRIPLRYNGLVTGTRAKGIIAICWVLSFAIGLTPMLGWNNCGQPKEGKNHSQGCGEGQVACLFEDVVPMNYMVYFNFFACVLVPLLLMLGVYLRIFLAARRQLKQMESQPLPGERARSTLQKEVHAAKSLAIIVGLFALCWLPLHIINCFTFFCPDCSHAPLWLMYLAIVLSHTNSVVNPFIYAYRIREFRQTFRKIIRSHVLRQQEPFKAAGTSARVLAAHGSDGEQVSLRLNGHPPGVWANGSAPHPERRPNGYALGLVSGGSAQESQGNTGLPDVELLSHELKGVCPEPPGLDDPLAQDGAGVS

## Nc1nc2ccc(Cl)cc2c2nc(-c3ccco3)nn12 [CGS15943]
A2AARs [1]
  Ki: 2150 pM

## CCNC(=O)[C@H]1O[C@@H](n2cnc3c(N)nc(NCCc4ccc(CCC(=O)O)cc4)nc32)[C@H](O)[C@@H]1O [CGS21680, 2-p-(2-Carboxyethyl)phenethylamino-5′-N-ethylcarboxamido-adenosine hydrochloride hydrate]
A549 cells; 48 and 72 h
  effect on cell proliferation: not more present
A549 cells; 24 h
  effect on cell proliferation: slightly increased cell proliferation
MRMT-1 cells; 10 nM, 48 and 72 h
  effect on cell proliferation: raised cell vitality
MRMT-1 cells; 100 nM, 24, 48 and 72 h
  effect on cell proliferation: significant stimulation
A375 cells; 100 nM, only at 48 h
  effect on cell proliferation: stimulatory effect of cell proliferation
pERK1/2; [4]
  ERK1/2 phosphorylation time course: reached a maximal effect after 5 min
pJNK1/2; [4]
  JNK1/2 phosphorylation time course: reached a maximal effect after 5 min
pAKT; [4]
  AKT phosphorylation time course: started to increase after 10 min

## Nc1nc2c(cnn2CCc2ccccc2)c2nc(-c3ccco3)nn12 [SCH58261]
A2AARs [1]
  Ki: 3260 pM

## COc1ccccc1CNc1nc(N)c2nc(-c3ccco3)sc2n1 [TP455, 2-(2-furanyl)-N^5-(2-methoxybenzyl)[1,3]thiazolo[5,4-d]pyrimidine-5,7-diammine]
A549 cells; 10 nM alone, 24 h
  effect on cell proliferation when tested alone: did not alter cell proliferation
A549 cells; 10 nM antagonist
  antagonism of CGS21680-induced cell proliferation: antagonized
MRMT-1 cells; 10 nM alone
  effect on cell proliferation when tested alone: did not alter cell proliferation
MRMT-1 cells; 10 nM antagonist
  antagonism of CGS21680-induced cell proliferation: antagonized
A375 cells; 10 nM alone
  effect on cell proliferation when tested alone: did not alter cell proliferation
A375 cells; 10 nM antagonist
  antagonism of CGS21680-induced cell proliferation: antagonized
pERK1/2; [5]
  antagonism of CGS21680-induced ERK1/2 phosphorylation: potently inhibited
pJNK1/2; [5]
  antagonism of CGS21680-induced JNK1/2 phosphorylation: potently inhibited
pAKT; [5]
  antagonism of CGS21680-induced AKT phosphorylation: potently inhibited
A2AARs [1]
  Ki: 6.1 pM
A2AARs [2]
  Ki: 5.8 pM
A2AARs [3]
  Ki: 5.3 pM

## COc1ccc2c(c1)CC[C@@H]1[C@@H]2CC[C@]2(C)[C@@H](NCCCCCCN3C(=O)C=CC3=O)CC[C@@H]12 [U73122, 1-[6-[[(17β)-3-Methoxyestra-1,3,5(10)-trien-17-yl]amino]hexyl]-1H-pyrrole-2,5-dione]
A549 cells
  inhibition of CGS21680-induced cell proliferation by signalling inhibitor: able to antagonize the stimulatory effect
MRMT-1 cells
  inhibition of CGS21680-induced cell proliferation by signalling inhibitor: able to antagonize the stimulatory effect
A375 cells
  inhibition of CGS21680-induced cell proliferation by signalling inhibitor: able to antagonize the stimulatory effect
pERK1/2
  inhibition of CGS21680-mediated ERK1/2 phosphorylation: strongly reduced
pJNK1/2
  inhibition of CGS21680-mediated JNK1/2 phosphorylation: strongly reduced
pAKT
  inhibition of CGS21680-mediated AKT phosphorylation: strongly reduced

## Nc1nc(NCCc2ccc(O)cc2)nc2nc(-c3ccco3)nn12 [ZM241385, 4-(2-[7-Amino-2-(2-furyl) [1,2,4]triazolo[2,3-a][1,3,5]triazin-5-ylamino]ethyl)phenol]
A549 cells; 100 nM alone, 24 h
  effect on cell proliferation when tested alone: did not alter cell proliferation
A549 cells; [6]
  antagonism of CGS21680-induced cell proliferation: completely block the agonist effect
MRMT-1 cells; 100 nM alone
  effect on cell proliferation when tested alone: did not alter cell proliferation
MRMT-1 cells; [6]
  antagonism of CGS21680-induced cell proliferation: completely block the agonist effect
A375 cells; 100 nM alone
  effect on cell proliferation when tested alone: did not alter cell proliferation
A375 cells; [6]
  antagonism of CGS21680-induced cell proliferation: completely block the agonist effect
pERK1/2; [7]
  antagonism of CGS21680-induced ERK1/2 phosphorylation: completely reverted
pJNK1/2; [7]
  antagonism of CGS21680-induced JNK1/2 phosphorylation: completely reverted
pAKT; [7]
  antagonism of CGS21680-induced AKT phosphorylation: completely reverted

## CC(=O)c1c(O)c(C)c(O)c(Cc2c(O)c3c(c(C(=O)C=Cc4ccccc4)c2O)OC(C)(C)C=C3)c1O [rottlerin, 1-[6-[(3-Acetyl-2,4,6-trihydroxy-5-methylphenyl)methyl]-5,7-dihydroxy-2,2-dimethyl-2H-1-benzopyran-8-yl]-3-phenyl-2-propen-1-one]
A549 cells
  inhibition of CGS21680-induced cell proliferation by signalling inhibitor: able to antagonize the stimulatory effect
MRMT-1 cells
  inhibition of CGS21680-induced cell proliferation by signalling inhibitor: able to antagonize the stimulatory effect
A375 cells
  inhibition of CGS21680-induced cell proliferation by signalling inhibitor: able to antagonize the stimulatory effect
pERK1/2
  inhibition of CGS21680-mediated ERK1/2 phosphorylation: strongly reduced
pJNK1/2
  inhibition of CGS21680-mediated JNK1/2 phosphorylation: strongly reduced
pAKT
  inhibition of CGS21680-mediated AKT phosphorylation: strongly reduced
